Literature values as cited in US9371350B2, “Trehalose derivatives and pharmaceutical compositions for treating neurodegenerative diseases” (POSTECH ACADEMY-INDUSTRY FOUNDATION, priority 2008, dated 2016).

Tests used:
[1] = background, literature report
[2] = tested on: polyglutamine-induced aggregate formation; conditions: in vivo mouse model, literature report

Structure (SMILES) | passage through the BBB to the brain [1] | inhibition of polyglutamine-induced aggregate formation [2]
O[C@H]1[C@H](O)[C@@H](O)[C@H](O)[C@@H](O)[C@H]1O [inositol] | difficulty in passing through the blood-brain barrier | –
OC[C@H]1O[C@H](O[C@H]2O[C@H](CO)[C@@H](O)[C@H](O)[C@H]2O)[C@H](O)[C@@H](O)[C@@H]1O [trehalose] | cannot pass through the BBB | efficiently inhibit
